Where two headings read alike, the source gives them in different places.
Tested on: Mycosphaerella graminicola; Anamorph: Septoria tritici; Bayer Code SEPTTR
Assay: Leaf blotch of wheat, foliar fungicide treatment, one day protectant (1DP) or three day curative (3DC)
Assay type: in vivo, Septoria tritici on wheat plants (variety Yuma)
Details: Zymoseptoria tritici
[1] = 24 h, one day protectant (1DP), 25 ppm, rating of percent disease control, read-out: SETTTR 1DP 25 ppm
[2] = 24 h, one day protectant (1DP), rating of percent disease control, read-out: SEPTTR 1DP 100 ppm
[3] = 72 h, three day curative (3DC), 25 ppm, rating of percent disease control, read-out: SEPTTR 3DC 25 ppm
[4] = 72 h, three day curative (3DC), rating of percent disease control, read-out: SEPTTR 3DC 100 ppm
[5] = 24 h, one day protectant, 25 ppm, rating of percent disease control, read-out: SETTTR 1DP 25 ppm
[6] = 24 h, one day protectant, rating of percent disease control, read-out: SEPTTR 1DP 100 ppm
[7] = 72 h, three day curative, 25 ppm, rating of percent disease control, read-out: SEPTTR 3DC 25 ppm
[8] = 72 h, three day curative, rating of percent disease control, read-out: SEPTTR 3DC 100 ppm
[9] = 24 h, one day protectant (1DP), 25 ppm (first 1DP column), percent control rating, read-out: SETTTR 1DP 25 ppm
[10] = 24 h, one day protectant (1DP), 25 ppm as printed (second 1DP column), percent control rating, read-out: SETTTR 1DP 25 ppm
[11] = 72 h, three day curative (3DC), 25 ppm, percent control rating, read-out: SEPTTR 3DC 25 ppm
[12] = 72 h, three day curative (3DC), percent control rating, read-out: SEPTTR 3DC 100 ppm
[13] = 24 h, one day protectant (1DP), 25 ppm, percent disease control rating, read-out: SETTTR 1DP 25 ppm
[14] = 24 h, one day protectant (1DP), percent disease control rating, read-out: SEPTTR 1DP 100 ppm
[15] = 72 h, three day curative (3DC), 25 ppm, percent disease control rating, read-out: SEPTTR 3DC 25 ppm
[16] = 72 h, three day curative (3DC), percent disease control rating, read-out: SEPTTR 3DC 100 ppm

Cc1ccc(COc2ncc(F)c(/N=C3\CCCCN3C)n2)cc1 [Compound 377]
pest or weed control at 25 ppm [1]: 76 to 100% | pest or weed control at 100 ppm [2]: 76 to 100% | pest or weed control at 25 ppm [3]: 51 to 75% | pest or weed control at 100 ppm [4]: 76 to 100%

CCCCCCOc1ncc(F)c(N[Si](CC)(CC)CC)n1 [Compound 658]
pest or weed control at 25 ppm [5]: 0 to 25% | pest or weed control at 100 ppm [6]: 51 to 75% | pest or weed control at 25 ppm [7]: 0 to 25% | pest or weed control at 100 ppm [8]: 51 to 75%

O=CNc1nc(OCOC(=O)C2CCCC2)ncc1F [Compound 1126]
pest or weed control at 25 ppm [9]: 76 to 100% | pest or weed control at 25 ppm [10]: 76 to 100% | pest or weed control at 25 ppm [11]: 76 to 100% | pest or weed control at 100 ppm [12]: 76 to 100%

Fc1ccc(COc2ncc(F)c(NNc3nc4ccccc4s3)n2)cc1 [Compound 1044]
pest or weed control at 25 ppm [9]: 0 to 25% | pest or weed control at 25 ppm [10]: 0 to 25% | pest or weed control at 25 ppm [11]: 0 to 25% | pest or weed control at 100 ppm [12]: 0 to 25%

O=C(Nc1ccccc1Cl)Nc1nc(O)ncc1F [Compound 966]
pest or weed control at 25 ppm [9]: 26 to 50% | pest or weed control at 25 ppm [10]: 51 to 75% | pest or weed control at 25 ppm [11]: 51 to 75% | pest or weed control at 100 ppm [12]: 51 to 75%

CN(C)/C=N/c1nc(OS(=O)(=O)c2ccccc2)ncc1F [Compound 28, Benzenesulfonic acid 4-(dimethylamino-methyleneamino)-5-fluoro-pyrimidin-2-yl ester]
pest or weed control at 25 ppm [13]: 76 to 100% | pest or weed control at 100 ppm [14]: 76 to 100% | pest or weed control at 25 ppm [15]: 76 to 100% | pest or weed control at 100 ppm [16]: 76 to 100%

COc1ccc(COc2ncc(F)c(NC(=S)NCc3ccccc3F)n2)cc1F [Compound 75]
pest or weed control at 25 ppm [13]: 26 to 50% | pest or weed control at 100 ppm [14]: 76 to 100% | pest or weed control at 25 ppm [15]: 76 to 100% | pest or weed control at 100 ppm [16]: 76 to 100%

CN(C)/C=N/c1nc(OC(=O)c2ccccc2)ncc1F [Compound 27, Benzoic acid 4-(dimethylamino-methyleneamino)-5-fluoropyrimidin-2-yl ester]
pest or weed control at 25 ppm [13]: 76 to 100% | pest or weed control at 100 ppm [14]: 76 to 100% | pest or weed control at 25 ppm [15]: 76 to 100% | pest or weed control at 100 ppm [16]: 76 to 100%

CCOC(=O)Nc1nc(OCc2ccccc2)ncc1F [Compound 71]
pest or weed control at 25 ppm [13]: 76 to 100% | pest or weed control at 100 ppm [14]: 76 to 100% | pest or weed control at 25 ppm [15]: 76 to 100% | pest or weed control at 100 ppm [16]: 76 to 100%

Cc1ccc(COc2ncc(F)c(NC(=O)Nc3ccccc3F)n2)cc1 [Compound 208]
pest or weed control at 25 ppm [1]: 0 to 25% | pest or weed control at 100 ppm [2]: 0 to 25% | pest or weed control at 25 ppm [3]: 0 to 25% | pest or weed control at 100 ppm [4]: 26 to 50%

COc1ncc(F)c(NNC(=O)Cc2ccccc2)n1 [Compound 1120]
pest or weed control at 25 ppm [9]: 0 to 25% | pest or weed control at 25 ppm [10]: 0 to 25% | pest or weed control at 25 ppm [11]: 0 to 25% | pest or weed control at 100 ppm [12]: 0 to 25%

CCOCNc1nc(OCc2ccc(C)cc2)ncc1F [Compound 675]
pest or weed control at 25 ppm [5]: 76 to 100% | pest or weed control at 100 ppm [6]: 76 to 100% | pest or weed control at 25 ppm [7]: 76 to 100% | pest or weed control at 100 ppm [8]: 76 to 100%

Cc1ccccc1C(C)Oc1ncc(F)c(/N=C/N(C)C)n1 (stereo not shown) [Compound 643]
pest or weed control at 25 ppm [5]: 76 to 100% | pest or weed control at 100 ppm [6]: 76 to 100% | pest or weed control at 25 ppm [7]: 76 to 100% | pest or weed control at 100 ppm [8]: 76 to 100%

COc1ccc(COc2ncc(F)c(NCOCc3ccccc3)n2)cc1F [Compound 709]
pest or weed control at 25 ppm [5]: 0 to 25% | pest or weed control at 100 ppm [6]: 76 to 100% | pest or weed control at 25 ppm [7]: 0 to 25% | pest or weed control at 100 ppm [8]: 51 to 75%

Fc1cnc(OCc2cccs2)nc1NCc1ccc(Cl)nc1 [Compound 874]
pest or weed control at 50 ppm (24 h, % disease control rating, one day protectant, 50 ppm): 0 to 25% | pest or weed control at 200 ppm (24 h, % disease control rating, one day protectant, 200 ppm): 0 to 25%

CNc1nc(OCc2ccc(F)cc2)ncc1F [Compound 784]
pest or weed control at 25 ppm [1]: 0 to 25% | pest or weed control at 100 ppm [2]: 0 to 25% | pest or weed control at 25 ppm [3]: 0 to 25% | pest or weed control at 100 ppm [4]: 0 to 25%

CC(C)COC(=O)Oc1ncc(F)c(/N=C/N(C)C)n1 [Compound 788]
pest or weed control at 25 ppm [1]: 76 to 100% | pest or weed control at 100 ppm [2]: 76 to 100% | pest or weed control at 25 ppm [3]: 76 to 100% | pest or weed control at 100 ppm [4]: 76 to 100%

CC(Oc1ncc(F)c(N)n1)c1ccc(Oc2ccccc2)cc1 (stereo not shown) [Compound 474]
pest or weed control at 25 ppm [1]: 76 to 100% | pest or weed control at 100 ppm [2]: 76 to 100% | pest or weed control at 25 ppm [3]: 76 to 100% | pest or weed control at 100 ppm [4]: 76 to 100%

Reference: US9204653B2, “5-fluoro pyrimidine derivatives” (DOW AGROSCIENCES LLC, priority 2008, dated 2015)
